Tests used:
Assay type in all cases: in vivo
sugarcane [1] = assay: Example 2: sugar content of sugarcane stem juice after spraying from an aircraft, field test in Brazil; settings: after 30 days of spraying
Description: (§1) In accordance with “NORMAS DE AVALIAçÃO DA […] DA CANA-DE-AçÚCAR” used in Brazilian sugar refining plants as Standard for quality evaluation of sugarcane, the analysis on the sugar content in the squeezed juice of sugarcane stem was carried out for Brix value, sugar content in sugarcane (PC), and total sugar amount recoverable from sugarcane stem (ATR) as follows.
(§2) Brix was measured according to a digital refractometer. PC was calculated according to the equation (1). ATR was calculated according to the equation (5).
At the time the Brix value of sugarcane grown in a sugarcane cultivated area in Brazil (an average Brix value in the harvesttime being 21%) became 81% of the aforesaid average Brix value, a bispyribac-sodium formulation (a commercially available product, a tradename “NOMINEE 400SC”) was diluted with water so that the amount of the effective ingredient in 30 liters of the spraying liquid could be equal to the used amount shown in Table 3, and the liquid was sprayed over the test area from an air-craft at a rate of 30 liters per hectare.
In a control area, a known fluazifop formulation (a commercially available product, a tradename “[…]”) was similarly sprayed.
Next, 5 individual sugarcanes were cut from 5 locations in each area, i.e. 25 sugarcanes from each area, on the initial day of spraying and after 30 days of spraying, and thereafter the stems were squeezed and sugar was recovered from the juice to obtain the yield. The yield after 30 days of spraying was compared with the yield of the initial day of spraying and the rate of increase (%) was calculated. The analysis on the sugar content in the squeezed juice of sugarcane stems was carried out similarly as in the case of Example 1.

sugarcane [2] = assay: Example 5: sugar content of sugarcane stem juice after bispyribac-sodium and/or gibberellin spraying, field test in Brazil; settings: 20 g/ha
Description: as §1, §2
At the time the Brix value of sugarcane grown in a sugarcane cultivated area in Brazil (an average Brix value in the harvesttime being 18%) became 88% of the aforesaid average Brix value, a bispyribac-sodium formulation (a commercially available product, a tradename, “NOMINEE 400SC”) and a gibberellin formulation (a commercially available product, a tradename, “PRO-GIBB”) were admixed together and diluted with water or separately diluted with water so that the amount of the effective ingredient in 105 liters of each of the spraying liquids could be equal to the used amount shown in Table 8, and each liquid was sprayed above the plant by the aid of a CO2-pressurized back pack sprayer to the test area at a rate of 105 liters per hectare.
(§3) In a control area, a known sulfometuron-methyl formulation (a commercially available product, a tradename “CURAVIAL”) was similarly sprayed.
(§4) Next, 20 individual sugarcanes were cut from each area on the initial day of spraying, after 15 days of spraying, after 30 days of spraying and after 45 days of spraying, and thereafter the stems were squeezed and sugar was recovered from the juice to obtain the yield. Each yield was compared with the yield of the initial day of spraying and the rate of increase (%) was calculated. The analysis on the sugar content in the squeezed juice of sugarcane stems was carried out similarly as in the case of Example 1.

sugarcane [3] = assay: Example 1: sugar content of sugarcane stem juice after power-sprayer application, field test in Brazil
Description: With respect to sugarcane grown in a sugarcane cultivated area in Brazil (an average Brix value in the harvesttime being 18%), a juice was collected from 5 middle internodes selected at random in the sugarcane stem and the Brix value was measured according to a usual method. At the time the measured Brix value became 82% of the aforementioned average Brix value, a bispyribac-sodium formulation (a commercially available product, a tradename “NOMINEE 400SC”) was diluted with water so that the amount of the effective ingredient in 74 liters of the spraying liquid could be equal to the used amount shown in Table 1. The liquid was then sprayed above the plant by the aid of a power sprayer to a test area at a rate of 74 liters per hectare.
as §3
Next, 10 individual sugarcanes were cut from each area on the initial day of spraying, after 30 days of spraying and after 45 days of spraying, and thereafter the stem was squeezed and sugar was recovered from the juice to obtain the yield. Each yield was compared with the yield of the initial day of spraying and the rate of increase (%) was calculated.
as §1, §2
S denotes a sugar content in the extracted liquid and is calculated according to the equation (2). F denotes an amount of fibers in sugarcane and is calculated according to the equation (3). C denotes a conversion coefficient from the sugar content in the extracted liquid to an absolute amount and is calculated according to the equation (4).
LAI denotes a measured value by the digital saccharimeter after clarification of the juice by a clarifying mixture made from aluminum.
PBU denotes the mass of a wet bagasse exhausted from a pressing machine in the squeezed step of sugarcane stem.
ARC denotes an amount of reducing sugar of sugarcane and is calculated from the following equation (6).
AR denotes an amount of reducing sugar in the extracted liquid and is calculated from the following equation (7).

sugarcane [4] = assay: Example 6: sugar content of sugarcane stem juice after bispyribac-sodium + prohexadione-calcium spraying, field test in Brazil; settings: 200 g/ha
Description: as §1, §2
At the time the Brix value of sugarcane grown in a sugarcane cultivated area in Brazil (an average Brix value in the harvesttime being 20%) became 80% of the aforesaid average Brix value, a bispyribac-sodium formulation (a commercially available product, a tradename, “NOMINEE 400SC”) and a prohexadione-calcium formulation (a tradename, “VIVIFUL”) were admixed together and diluted with water so that the amount of the effective ingredient in 105 liters of each spraying liquid could be equal to the used amount shown in Table 10, and the liquid was sprayed above the plant by the aid of a CO2-pressurized back pack sprayer to the test area at a rate of 105 liters per hectare.
In a control area, a known trinexapac-ethyl formulation (a commercially available product, a tradename “MODDUS”) was similarly sprayed.
as §4

[5] = 16 g/ha, after 30 days of spraying
[6] = 16 g/ha, after 45 days of spraying
[7] = 35 g/ha, after 30 days of spraying
[8] = 35 g/ha, after 45 days of spraying

## COc1cc(OC)nc(Oc2cccc(Oc3nc(OC)cc(OC)n3)c2C(=O)O)n1 [Bispyribac-sodium]
Sugarcane [1]; 25 g/ha
  ATR increased rate from the initial day of spraying: 22.3%
  Brix increased rate from the initial day of spraying: 19.8%
  Concentration of soluble solid matter, Brix: 19.9%
  PC increased rate from the initial day of spraying: 24.1%
  Sugar content in sugarcane, PC: 14.6%
  Total sugar amount recoverable from 1 kg of stem, ATR: 141.8 g
Sugarcane [1]; 30 g/ha
  ATR increased rate from the initial day of spraying: 22.1%
  Brix increased rate from the initial day of spraying: 21.6%
  Concentration of soluble solid matter, Brix: 20.8%
  PC increased rate from the initial day of spraying: 25.2%
  Sugar content in sugarcane, PC: 15.6%
  Total sugar amount recoverable from 1 kg of stem, ATR: 149.0 g
Sugarcane [2]; after 15 days of spraying
  ATR increased rate from the initial day of spraying: 6.2%
  Brix increased rate from the initial day of spraying: 4.5%
  Concentration of soluble solid matter, Brix: 16.2%
  Total sugar amount recoverable from 1 kg of stem, ATR: 112.5 g
Sugarcane [2]; after 30 days of spraying
  ATR increased rate from the initial day of spraying: 17.3%
  Brix increased rate from the initial day of spraying: 11.7%
  Concentration of soluble solid matter, Brix: 17.3%
  Total sugar amount recoverable from 1 kg of stem, ATR: 124.2 g
Sugarcane [2]; after 45 days of spraying
  ATR increased rate from the initial day of spraying: 19.1%
  Brix increased rate from the initial day of spraying: 12.9%
  Concentration of soluble solid matter, Brix: 17.5%
  Total sugar amount recoverable from 1 kg of stem, ATR: 126.1 g
Sugarcane [3]; [5]
  ATR increased rate from the initial day of spraying: 23.1%
  Brix increased rate from the initial day of spraying: 23.0%
  Concentration of soluble solid matter, Brix: 18.4%
  PC increased rate from the initial day of spraying: 25.7%
  Sugar content in sugarcane, PC: 13.0%
  Total sugar amount recoverable from 1 kg of stem, ATR: 129.7 g
Sugarcane [3]; [6]
  ATR increased rate from the initial day of spraying: 44.9%
  Brix increased rate from the initial day of spraying: 41.0%
  Concentration of soluble solid matter, Brix: 21.1%
  PC increased rate from the initial day of spraying: 50.9%
  Sugar content in sugarcane, PC: 15.5%
  Total sugar amount recoverable from 1 kg of stem, ATR: 152.7 g
Sugarcane [3]; [7]
  ATR increased rate from the initial day of spraying: 32.0%
  Brix increased rate from the initial day of spraying: 29.5%
  Concentration of soluble solid matter, Brix: 20.5%
  PC increased rate from the initial day of spraying: 35.9%
  Sugar content in sugarcane, PC: 14.7%
  Total sugar amount recoverable from 1 kg of stem, ATR: 145.1 g
Sugarcane [3]; [8]
  ATR increased rate from the initial day of spraying: 42.1%
  Brix increased rate from the initial day of spraying: 37.1%
  Concentration of soluble solid matter, Brix: 21.7%
  PC increased rate from the initial day of spraying: 47.6%
  Sugar content in sugarcane, PC: 15.9%
  Total sugar amount recoverable from 1 kg of stem, ATR: 156.2 g

## CCOC(=O)C1CC(=O)C(=C(O)C2CC2)C(=O)C1 (stereo not drawn) [Trinexapac-ethyl, trinexapac-ethyl]
Sugarcane [4]; after 15 days of spraying
  ATR increased rate from the initial day of spraying: 10.3%
  Brix increased rate from the initial day of spraying: 8.0%
  Concentration of soluble solid matter, Brix: 17.5%
  Total sugar amount recoverable from 1 kg of stem, ATR: 125.3 g
Sugarcane [4]; after 30 days of spraying
  ATR increased rate from the initial day of spraying: 18.0%
  Brix increased rate from the initial day of spraying: 15.7%
  Concentration of soluble solid matter, Brix: 18.8%
  Total sugar amount recoverable from 1 kg of stem, ATR: 134.0 g
Sugarcane [4]; after 45 days of spraying
  ATR increased rate from the initial day of spraying: 30.8%
  Brix increased rate from the initial day of spraying: 24.7%
  Concentration of soluble solid matter, Brix: 20.2%
  Total sugar amount recoverable from 1 kg of stem, ATR: 148.5 g

Source: patent publication US20100210467A1, “AGENT FOR IMPROVING SUGARCANE BRIX AND METHOD OF PROMOTING SUGARCANE RIPENING USING THE SAME” (Kumiai Chemical Industry Co., Ltd., priority 2007, published 2010)
